# Experimental data: PubChem BioAssay AID264 (DTP/NCI, 2004)
# Several values for one entry are separate records, joined by “and”; a condition that tells them apart may be missing. Identical values can stand only once. Inconclusive results are not listed.
# Tested on: nude mice, LX-1 lung xenograft intrarenal, tumor weight T/C
# Assay: NCI In Vivo Anticancer Drug Screen. Data for tumor model Human Lung LX-1 Xenograft (intrarenal inoculation) in NU/NU Swiss (nude) mice
# Details: endpoint: mean tumor weight change, higher = larger tumour
# Outline: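 Readout: T/C, i.e. treated-group tumor measurement over vehicle-control measurement. Mice bearing transplantable tumors were dosed with compound or vehicle.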
# [1] = dose: 200.0 mg/kg/injection, schedule: Q01DX010 (sc), vehicle: saline
# [2] = dose: 400.0 mg/kg/injection, schedule: Q01DX010 (sc), vehicle: saline
# [3] = dose: 800.0 mg/kg/injection, schedule: Q01DX010 (sc), vehicle: saline
# [4] = dose: 0.37 mg/kg/injection, schedule: Q01DX010 (sc), vehicle: saline
# [5] = dose: 100.0 mg/kg/injection, schedule: Q01DX010 (sc), vehicle: Klucel (hydroxypropylcellulose) (HPC)
# [6] = dose: 200.0 mg/kg/injection, schedule: Q01DX010 (sc), vehicle: Klucel (hydroxypropylcellulose) (HPC)
structure (smiles),measurement,setting,value
COc1cc2c(ccc3c4cc(OC)c(OC)cc4c[n+](C)c23)cc1O,T/C,"dose: 300.0 mg/kg/injection, schedule: Q04DX003 (sc), vehicle: saline",107 % of control
same,T/C,"dose: 600.0 mg/kg/injection, schedule: Q04DX003 (sc), vehicle: saline",79 % of control
same,T/C,"dose: 1200.0 mg/kg/injection, schedule: Q04DX003 (sc), vehicle: saline",46 % of control
same,T/C,"dose: 2400.0 mg/kg/injection, schedule: Q04DX003 (sc), vehicle: saline",65 % of control
NC(=O)c1ccc[n+](Cc2c(Cl)cccc2Cl)c1,T/C,"dose: 50.0 mg/kg/injection, schedule: Q04DX003 (sc), vehicle: saline",115 % of control
same,T/C,"dose: 100.0 mg/kg/injection, schedule: Q04DX003 (sc), vehicle: saline",83 % of control
same,T/C,"dose: 200.0 mg/kg/injection, schedule: Q04DX003 (sc), vehicle: saline",90 % of control
Nc1nc([Se])c2ncn(C3OC(CO)C(O)C3O)c2n1 (stereo not given),T/C,"dose: 1.0 mg/kg/injection, schedule: Q01DX010 (sc), vehicle: saline",264 % of control
same,T/C,"dose: 2.0 mg/kg/injection, schedule: Q01DX010 (ip), vehicle: saline",46 % of control
same,T/C,"dose: 4.0 mg/kg/injection, schedule: Q01DX010 (ip), vehicle: saline",31 % of control
same,T/C,"dose: 6.66 mg/kg/injection, schedule: Q04DX003 (ip), vehicle: saline",82 % of control
same,T/C,"dose: 6.66 mg/kg/injection, schedule: Q04DX003 (sc), vehicle: saline",45 % of control
same,T/C,"dose: 8.0 mg/kg/injection, schedule: Q01DX010 (ip), vehicle: saline",41 % of control
same,T/C,"dose: 13.33 mg/kg/injection, schedule: Q04DX003 (ip), vehicle: saline",121 % of control
same,T/C,"dose: 13.33 mg/kg/injection, schedule: Q04DX003 (sc), vehicle: saline",62 % of control
same,T/C,"dose: 16.0 mg/kg/injection, schedule: Q01DX010 (ip), vehicle: saline",61 % of control
same,T/C,"dose: 16.0 mg/kg/injection, schedule: Q01DX010 (sc), vehicle: saline",35 % of control
same,T/C,"dose: 26.65 mg/kg/injection, schedule: Q04DX003 (ip), vehicle: saline",91 % of control
same,T/C,"dose: 26.65 mg/kg/injection, schedule: Q04DX003 (sc), vehicle: saline",95 % of control
same,T/C,"dose: 53.3 mg/kg/injection, schedule: Q04DX003 (ip), vehicle: saline",44 % of control
O=C(O)CC(=O)O.[NH-]CC[NH-].[Pt+2],T/C,"dose: 12.5 mg/kg/injection, schedule: Q01DX010 (sc), vehicle: dextrose",100 % of control
same,T/C,"dose: 25.0 mg/kg/injection, schedule: Q01DX010 (sc), vehicle: dextrose",74 % of control
same,T/C,"dose: 50.0 mg/kg/injection, schedule: Q01DX010 (sc), vehicle: dextrose",74 % of control
NCCc1ccc(O)c(O)c1,T/C,[1],113 % of control
same,T/C,[2],92 % of control
same,T/C,[3],52 % of control
[N-]=[N+]=CC(=O)CCC(N)C(=O)O (stereo not given),T/C,"dose: 0.05 mg/kg/injection, schedule: Q01DX010 (sc), vehicle: saline",91 % of control
same,T/C,[4],12 % of control
same,T/C,"dose: 0.75 mg/kg/injection, schedule: Q01DX010 (sc), vehicle: saline",-28 % of control
CN=C(N)N/N=C(\C)c1ccc2c(c1)Cc1cc(/C(C)=N/NC(N)=NC)ccc1-2,T/C,"dose: 12.5 mg/kg/injection, schedule: Q04DX003 (sc), vehicle: saline with Tween-80",99 % of control
same,T/C,"dose: 25.0 mg/kg/injection, schedule: Q04DX003 (sc), vehicle: saline with Tween-80",90 % of control
same,T/C,"dose: 50.0 mg/kg/injection, schedule: Q04DX003 (sc), vehicle: saline with Tween-80",67 % of control
same,T/C,"dose: 100.0 mg/kg/injection, schedule: Q04DX003 (sc), vehicle: saline with Tween-80",69 % of control
CNC(=O)ON(C(C)=O)C(=O)NC,T/C,"dose: 12.5 mg/kg/injection, schedule: Q01DX010 (sc), vehicle: saline",109 % of control
same,T/C,"dose: 25.0 mg/kg/injection, schedule: Q01DX010 (sc), vehicle: saline",102 % of control
Nc1ncnc2c1ncn2C1OC(COP(=O)(O)O)C(O)C1O (stereo not given),T/C,"dose: 100.0 mg/kg/injection, schedule: Q01DX010 (sc), vehicle: saline",38 % of control
same,T/C,[1],78 % of control
same,T/C,[2],59 % of control
same,T/C,[3],67 % of control
COC1C(O)CC(OC2CC(OC3CC(O[C@@H]4C(=O)c5c(cc6cc(OC7CC(OC8CC(O)C(O)C(C)O8)C(O)C(C)O7)c(C)c(O)c6c5O)C[C@H]4[C@H](OC)C(=O)[C@@H](O)[C@@H](C)O)OC(C)C3O)OC(C)C2O)OC1C (stereo not given in full),T/C,"dose: 0.18 mg/kg/injection, schedule: Q01DX010 (sc), vehicle: saline",62 % of control
same,T/C,[4],32 % of control
O=NN(CCCl)C(=O)NC1CCCCC1,T/C,"dose: 4.0 mg/kg/injection, schedule: Q01DX010 (ip), vehicle: saline with Tween-80",101 % of control
same,T/C,"dose: 8.0 mg/kg/injection, schedule: Q01DX010 (ip), vehicle: saline with Tween-80",19 % of control
same,T/C,"dose: 8.0 mg/kg/injection, schedule: Q01DX010 (sc), vehicle: saline with Tween-80",112 % of control
same,T/C,"dose: 8.0 mg/kg/injection, schedule: Q04DX003 (sc), vehicle: carboxymethylcellulose (CMC)",64 % of control and 65 % of control
same,T/C,"dose: 12.5 mg/kg/injection, schedule: Q04DX003 (sc), vehicle: Klucel (hydroxypropylcellulose) (HPC)",35 % of control
same,T/C,"dose: 13.33 mg/kg/injection, schedule: Q04DX003 (ip), vehicle: saline with Tween-80",236 % of control
same,T/C,"dose: 16.0 mg/kg/injection, schedule: Q01DX010 (ip), vehicle: saline with Tween-80",11 % of control
same,T/C,"dose: 16.0 mg/kg/injection, schedule: Q01DX010 (sc), vehicle: saline with Tween-80",79 % of control
same,T/C,"dose: 26.65 mg/kg/injection, schedule: Q04DX003 (ip), vehicle: saline with Tween-80",152 % of control
same,T/C,"dose: 32.0 mg/kg/injection, schedule: Q01DX010 (sc), vehicle: saline with Tween-80",-16 % of control
same,T/C,"dose: 32.0 mg/kg/injection, schedule: Q04DX003 (sc), vehicle: carboxymethylcellulose (CMC)",45 % of control and 52 % of control
same,T/C,"dose: 50.0 mg/kg/injection, schedule: Q04DX003 (sc), vehicle: Klucel (hydroxypropylcellulose) (HPC)",119 % of control
same,T/C,"dose: 53.33 mg/kg/injection, schedule: Q04DX003 (ip), vehicle: saline with Tween-80",-38 % of control
same,T/C,"dose: 64.0 mg/kg/injection, schedule: Q04DX003 (sc), vehicle: carboxymethylcellulose (CMC)",10 % of control and 29 % of control
C/C(=C\c1ccccc1)[N+](=O)[O-],T/C,"dose: 6.25 mg/kg/injection, schedule: Q01DX010 (sc), vehicle: Klucel (hydroxypropylcellulose) (HPC)",60 % of control
same,T/C,"dose: 12.5 mg/kg/injection, schedule: Q01DX010 (sc), vehicle: Klucel (hydroxypropylcellulose) (HPC)",56 % of control
same,T/C,[5],159 % of control
same,T/C,[6],196 % of control
COc1cccc2c1C(=N)c1c(O)c3c(c(O)c1C2=O)C[C@@](O)(C(C)=O)C[C@@H]3OC1CC(N)C(O)C(C)O1 (stereo not given in full),T/C,"dose: 24.0 mg/kg/injection, schedule: Q04DX003 (sc), vehicle: water",46 % of control
same,T/C,"dose: 48.0 mg/kg/injection, schedule: Q04DX003 (sc), vehicle: water",10 % of control
same,T/C,"dose: 96.0 mg/kg/injection, schedule: Q04DX003 (sc), vehicle: water",23 % of control
CN(C)N=Nc1ccc(S(N)(=O)=O)cc1,T/C,[5],1 % of control and 8 % of control
same,T/C,[6],3 % of control and 9 % of control
same,T/C,"dose: 800.0 mg/kg/injection, schedule: Q01DX010 (sc), vehicle: Klucel (hydroxypropylcellulose) (HPC)",16 % of control
CC1OC(OC2CC(O)(C(=O)CO)Cc3c(O)c4c(c(O)c32)C(=O)c2ccccc2C4=O)CC(N)C1O (stereo not given),T/C,"dose: 0.5 mg/kg/injection, schedule: Q01DX010 (sc), vehicle: water",57 % of control
same,T/C,"dose: 1.0 mg/kg/injection, schedule: Q01DX010 (sc), vehicle: water",83 % of control
COc1ccc(-c2csc(=[N+]3CCCCC3)s2)cc1,T/C,"dose: 1.56 mg/kg/injection, schedule: Q04DX003 (sc), vehicle: water",91 % of control
same,T/C,"dose: 3.12 mg/kg/injection, schedule: Q04DX003 (sc), vehicle: water",84 % of control
same,T/C,"dose: 6.25 mg/kg/injection, schedule: Q04DX003 (sc), vehicle: water",72 % of control
same,T/C,"dose: 12.5 mg/kg/injection, schedule: Q04DX003 (sc), vehicle: water",80 % of control
Oc1cc2ccccc2c(-c2c(O)c(O)cc3ccccc23)c1O,T/C,"dose: 75.0 mg/kg/injection, schedule: Q04DX003 (sc), vehicle: saline with Tween-80",85 % of control
same,T/C,"dose: 150.0 mg/kg/injection, schedule: Q04DX003 (sc), vehicle: saline with Tween-80",108 % of control
same,T/C,"dose: 300.0 mg/kg/injection, schedule: Q04DX003 (sc), vehicle: saline with Tween-80",42 % of control
same,T/C,"dose: 600.0 mg/kg/injection, schedule: Q04DX003 (sc), vehicle: saline with Tween-80",52 % of control
